Assay [1] concerns the target T1, Dual specificity mitogen-activated protein kinase kinase 7 (Homo sapiens, UniProt O14733).
T1 sequence (O14733 whole entry): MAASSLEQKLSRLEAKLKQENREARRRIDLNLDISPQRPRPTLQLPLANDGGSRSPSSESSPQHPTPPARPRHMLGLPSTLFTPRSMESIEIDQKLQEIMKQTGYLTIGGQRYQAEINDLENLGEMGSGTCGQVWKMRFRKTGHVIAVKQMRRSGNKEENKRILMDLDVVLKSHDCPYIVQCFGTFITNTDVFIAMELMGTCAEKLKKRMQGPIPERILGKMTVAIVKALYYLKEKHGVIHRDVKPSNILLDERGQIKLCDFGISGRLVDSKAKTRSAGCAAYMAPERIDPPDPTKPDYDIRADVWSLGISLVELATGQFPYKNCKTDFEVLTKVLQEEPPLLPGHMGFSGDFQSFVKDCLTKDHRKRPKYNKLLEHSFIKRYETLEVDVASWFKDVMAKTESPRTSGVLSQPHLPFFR
Kind of assay: Inhibition of MEK7.

Assay [2] deals with Mitogen-activated protein kinase 1 (Homo sapiens, UniProt P28482). The assay can be described thus: Inhibition of Erk2.
Chain of Mitogen-activated protein kinase 1 (P28482 whole entry): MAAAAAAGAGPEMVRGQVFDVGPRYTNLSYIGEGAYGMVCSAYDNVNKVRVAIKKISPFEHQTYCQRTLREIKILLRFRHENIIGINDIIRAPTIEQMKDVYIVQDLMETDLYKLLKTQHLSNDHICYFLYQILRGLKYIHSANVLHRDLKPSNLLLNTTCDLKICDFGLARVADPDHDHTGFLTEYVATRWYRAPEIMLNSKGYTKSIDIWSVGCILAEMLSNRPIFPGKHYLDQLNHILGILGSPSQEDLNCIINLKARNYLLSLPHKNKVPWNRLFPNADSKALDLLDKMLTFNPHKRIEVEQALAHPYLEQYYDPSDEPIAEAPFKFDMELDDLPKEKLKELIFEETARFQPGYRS
For assay [3], the target named is Dual specificity mitogen-activated protein kinase kinase 1 (Homo sapiens, UniProt Q02750). Kind of assay: Inhibition of MEK1.
Chain of Dual specificity mitogen-activated protein kinase kinase 1 (Q02750 whole entry): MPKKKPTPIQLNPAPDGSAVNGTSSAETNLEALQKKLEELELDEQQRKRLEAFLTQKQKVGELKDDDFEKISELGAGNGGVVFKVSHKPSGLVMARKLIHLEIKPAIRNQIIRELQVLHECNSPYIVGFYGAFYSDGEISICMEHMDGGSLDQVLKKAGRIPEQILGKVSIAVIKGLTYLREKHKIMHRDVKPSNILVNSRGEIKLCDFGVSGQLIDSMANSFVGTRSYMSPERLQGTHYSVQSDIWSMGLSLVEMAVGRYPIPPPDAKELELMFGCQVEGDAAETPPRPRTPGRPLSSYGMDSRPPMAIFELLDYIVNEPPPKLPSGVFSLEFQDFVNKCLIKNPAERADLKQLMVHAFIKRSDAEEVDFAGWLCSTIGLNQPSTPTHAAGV
Assay [4] concerns the target T2, Dual specificity mitogen-activated protein kinase kinase 4 (Homo sapiens, UniProt P45985).
T2 sequence (P45985 whole entry): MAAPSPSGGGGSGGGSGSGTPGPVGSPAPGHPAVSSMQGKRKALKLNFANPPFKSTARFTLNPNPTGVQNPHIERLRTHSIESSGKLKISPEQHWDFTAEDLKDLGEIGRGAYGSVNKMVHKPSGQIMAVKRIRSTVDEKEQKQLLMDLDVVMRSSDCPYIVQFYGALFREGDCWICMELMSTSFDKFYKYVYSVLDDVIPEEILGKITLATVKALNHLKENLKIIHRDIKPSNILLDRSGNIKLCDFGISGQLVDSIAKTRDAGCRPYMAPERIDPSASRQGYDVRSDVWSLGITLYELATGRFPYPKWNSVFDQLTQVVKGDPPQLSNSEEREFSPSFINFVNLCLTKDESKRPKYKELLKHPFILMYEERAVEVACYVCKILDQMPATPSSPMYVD
The assay can be described thus: Inhibition of MKK4.

For assay [5], the target named is T3, Proto-oncogene tyrosine-protein kinase Src (Gallus gallus, UniProt P00523). Kind of assay: Inhibition of chicken c-Src using IYGEFKKK peptide as a substrate and [32P]ATP by […].
Assay [6] concerns the target Mitogen-activated protein kinase kinase kinase 1 (Homo sapiens, UniProt Q13233). Kind of assay: Inhibition of MEKK1.
The test system of the next assay is Mus musculus. The assay can be described thus: Receptor occupancy of Btk in CIA mouse model at 60 mg/kg/day. The format is functional.
Assay [7] deals with Proto-oncogene tyrosine-protein kinase Src (Gallus gallus, UniProt P00523, T338G). The assay can be described thus: Inhibition of chicken c-Src T338G mutant.
Assay [8] addresses T3, Proto-oncogene tyrosine-protein kinase Src. The assay can be described thus: Inhibition of chicken c-Src.
Assay [9] has as its target RAC-alpha serine/threonine-protein kinase (Homo sapiens, UniProt P31749). The assay can be described thus: Inhibition of human AKT1 using biotinylated GSKalpha peptide (SGRARTSSFA) as a substrate after 1 hr.

8 compounds from ChEMBL document CHEMBL2216750, “Irreversible protein kinase inhibitors: balancing the benefits and risks” (J Med Chem, 2012) can be followed below.

Molecules are shown by their SMILES. Where only a bound is given, the exact number is not on record here.

Chain of Mitogen-activated protein kinase kinase kinase 1 (Q13233 whole entry): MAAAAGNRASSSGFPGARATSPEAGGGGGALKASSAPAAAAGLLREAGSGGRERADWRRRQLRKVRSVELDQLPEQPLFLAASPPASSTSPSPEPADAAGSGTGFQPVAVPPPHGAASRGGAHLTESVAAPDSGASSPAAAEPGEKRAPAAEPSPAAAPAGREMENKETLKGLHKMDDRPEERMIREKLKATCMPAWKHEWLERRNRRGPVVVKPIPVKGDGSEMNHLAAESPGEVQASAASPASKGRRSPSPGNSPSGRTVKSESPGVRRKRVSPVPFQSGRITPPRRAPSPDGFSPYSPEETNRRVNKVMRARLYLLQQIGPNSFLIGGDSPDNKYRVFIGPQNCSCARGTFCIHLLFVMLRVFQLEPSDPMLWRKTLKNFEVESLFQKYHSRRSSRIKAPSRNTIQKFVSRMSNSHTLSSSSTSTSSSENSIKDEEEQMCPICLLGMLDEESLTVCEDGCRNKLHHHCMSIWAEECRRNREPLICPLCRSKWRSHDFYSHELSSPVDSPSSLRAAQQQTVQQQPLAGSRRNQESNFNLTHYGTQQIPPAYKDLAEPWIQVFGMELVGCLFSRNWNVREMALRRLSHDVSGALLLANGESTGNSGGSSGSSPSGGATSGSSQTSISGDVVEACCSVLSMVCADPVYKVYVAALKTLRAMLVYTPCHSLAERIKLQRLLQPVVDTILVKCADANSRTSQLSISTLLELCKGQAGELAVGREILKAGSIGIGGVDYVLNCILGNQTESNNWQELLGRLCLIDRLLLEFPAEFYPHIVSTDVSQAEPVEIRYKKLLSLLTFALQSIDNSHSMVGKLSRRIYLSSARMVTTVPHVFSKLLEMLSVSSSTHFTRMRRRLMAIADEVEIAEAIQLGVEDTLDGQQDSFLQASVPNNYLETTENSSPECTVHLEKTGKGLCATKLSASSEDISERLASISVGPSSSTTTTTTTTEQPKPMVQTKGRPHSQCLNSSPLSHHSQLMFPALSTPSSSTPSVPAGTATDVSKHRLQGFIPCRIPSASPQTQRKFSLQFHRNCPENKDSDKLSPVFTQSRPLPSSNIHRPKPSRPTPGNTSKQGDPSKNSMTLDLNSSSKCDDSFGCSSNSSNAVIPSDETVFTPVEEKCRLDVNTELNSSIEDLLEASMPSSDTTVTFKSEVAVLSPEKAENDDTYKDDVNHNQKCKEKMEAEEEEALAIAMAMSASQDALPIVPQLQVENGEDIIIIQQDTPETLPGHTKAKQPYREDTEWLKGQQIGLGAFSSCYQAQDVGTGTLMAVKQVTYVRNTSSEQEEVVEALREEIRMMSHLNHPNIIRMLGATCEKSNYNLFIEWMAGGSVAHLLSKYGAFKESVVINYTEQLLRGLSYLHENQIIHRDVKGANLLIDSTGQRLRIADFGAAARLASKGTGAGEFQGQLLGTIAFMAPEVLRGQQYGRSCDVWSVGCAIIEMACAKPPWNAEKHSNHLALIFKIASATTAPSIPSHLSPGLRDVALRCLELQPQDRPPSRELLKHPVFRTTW
Chain of RAC-alpha serine/threonine-protein kinase (P31749 whole entry): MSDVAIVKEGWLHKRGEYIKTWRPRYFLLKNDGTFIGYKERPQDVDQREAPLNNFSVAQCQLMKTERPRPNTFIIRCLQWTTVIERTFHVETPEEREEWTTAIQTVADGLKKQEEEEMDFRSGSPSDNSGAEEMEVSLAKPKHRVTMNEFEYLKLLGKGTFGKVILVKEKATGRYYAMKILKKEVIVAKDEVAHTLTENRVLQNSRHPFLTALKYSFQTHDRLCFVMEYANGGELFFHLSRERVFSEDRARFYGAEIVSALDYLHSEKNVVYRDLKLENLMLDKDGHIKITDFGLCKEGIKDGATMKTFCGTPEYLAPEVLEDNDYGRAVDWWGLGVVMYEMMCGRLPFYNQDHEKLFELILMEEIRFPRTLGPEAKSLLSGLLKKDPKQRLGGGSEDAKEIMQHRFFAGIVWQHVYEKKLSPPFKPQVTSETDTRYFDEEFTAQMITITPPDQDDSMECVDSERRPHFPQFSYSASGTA

With `COc1cc(O)c2c(c1)/C=C/C[C@H](O)[C@H](O)C(=O)/C=C\C[C@H](C)OC2=O`, the IC50 is 300 nM in assay [1], 80 nM in assay [2], 6 nM in assay [3] and greater than 3000 nM in assay [4].
For the compound `C=CS(=O)(=O)Nc1cccc(Cc2nn(C(C)C)c3ncnc(N)c23)c1`, the 50% inhibitory concentration (IC50) in assay [5] was greater than 5000 nM.
On to `CCNc1cc(O)c2c(c1)/C=C/C[C@@H](O)[C@H](O)C(=O)/C=C\[C@H](C)[C@H](C)OC2=O`, for which the 50% inhibitory concentration (IC50) in [6] worked out at 31 nM; in assay [3], 5.2 nM.
In the assay on Mus musculus, `C=CC(=O)Nc1cccc(Nc2nc(Nc3ccc(Oc4ccnc(C(=O)NC)c4)cc3)ncc2F)c1` yielded an Occ of 70%.
As for `O=C(Nc1ccc2ncnc(Nc3cccc(Br)c3)c2c1)[C@@H]1O[C@H]1CN1CCCCC1`, the IC50 in assay [7] is 1 nM; in [8], greater than 27000 nM.
Turning to `CC#CC(=O)Nc1ccc2ncnc(Nc3cccc(Br)c3)c2c1`, the 50% inhibitory concentration (IC50) is 1 nM in assay [7] and greater than 27000 nM in assay [8].
For `CN(C)C/C=C/C(=O)Nc1ccc2ncnc(Nc3cccc(Br)c3)c2c1`, in that order: 1 nM and greater than 27000 nM.
Turning to `CCC[C@H]1O[C@@H]2CC(=O)O[C@@H]2C2=C1C(=O)c1c(O)cccc1C2=O` [FRENOLICIN B], the 50% inhibitory concentration (IC50) in assay [9] came out at 313 nM.
